Common to all, as to test: Kinase Inhibition Assay
In experiment [1] the target is Cyclin-dependent kinase 4 (Homo sapiens, UniProt P11802). The method, then: (§1) The kinase activity is the enzyme activity that catalyzes the transfer of the terminal phosphate from [gamma-32P] ATP to the poly (E: Y) substrate. Nonspecific activity was defined as radioactivity retained on the filters following incubation of samples without enzyme. Specific activity was determined as total activity minus nonspecific activity.
Cyclin-dependent kinase 4, sequence (P11802 whole entry): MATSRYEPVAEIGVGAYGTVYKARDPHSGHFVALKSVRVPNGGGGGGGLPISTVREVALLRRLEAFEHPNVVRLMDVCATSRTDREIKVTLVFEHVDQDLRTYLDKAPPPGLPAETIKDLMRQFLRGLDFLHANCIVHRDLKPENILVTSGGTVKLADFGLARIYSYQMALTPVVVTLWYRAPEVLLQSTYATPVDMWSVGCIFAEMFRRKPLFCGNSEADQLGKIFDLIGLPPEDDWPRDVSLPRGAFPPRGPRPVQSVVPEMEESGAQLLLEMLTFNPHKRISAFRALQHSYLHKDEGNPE

The target of experiment [2] is Mitogen-activated protein kinase 1/3 (Homo sapiens, UniProt P27361+P28482). The method, then: as §1
Mitogen-activated protein kinase 1/3, sequence (P28482 whole entry): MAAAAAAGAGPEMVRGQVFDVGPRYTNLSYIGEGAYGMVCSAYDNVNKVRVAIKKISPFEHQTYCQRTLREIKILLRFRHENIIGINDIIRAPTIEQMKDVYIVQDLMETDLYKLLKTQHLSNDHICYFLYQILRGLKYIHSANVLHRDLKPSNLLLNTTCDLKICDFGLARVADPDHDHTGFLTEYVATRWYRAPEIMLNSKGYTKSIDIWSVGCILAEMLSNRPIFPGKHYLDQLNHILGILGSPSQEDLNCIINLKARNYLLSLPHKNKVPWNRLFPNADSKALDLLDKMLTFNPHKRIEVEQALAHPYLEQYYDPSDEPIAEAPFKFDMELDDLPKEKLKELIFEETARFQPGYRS
Mitogen-activated protein kinase 1/3, sequence (P27361 whole entry): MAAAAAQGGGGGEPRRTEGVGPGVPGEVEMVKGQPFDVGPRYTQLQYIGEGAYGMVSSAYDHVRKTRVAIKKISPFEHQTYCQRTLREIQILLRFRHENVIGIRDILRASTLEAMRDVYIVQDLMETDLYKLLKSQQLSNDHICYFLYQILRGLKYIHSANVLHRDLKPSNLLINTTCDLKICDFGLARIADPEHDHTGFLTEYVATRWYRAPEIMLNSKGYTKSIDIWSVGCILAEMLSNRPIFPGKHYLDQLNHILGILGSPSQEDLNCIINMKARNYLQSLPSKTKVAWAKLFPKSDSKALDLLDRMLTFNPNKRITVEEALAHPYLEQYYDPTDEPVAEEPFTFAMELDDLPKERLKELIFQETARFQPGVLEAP
The target in experiment [3] is Platelet-derived growth factor receptor alpha/beta (Homo sapiens, UniProt P09619+P16234). The method, then:
as §1

Experiment [4] concerns the target Platelet-derived growth factor receptor beta (Homo sapiens, UniProt P09619). The method, then: as §1
Experiment [5] deals with Fibroblast growth factor receptor 1 (Homo sapiens, UniProt P11362). The method, then:
as §1

Experiment [6] has as its target Proto-oncogene tyrosine-protein kinase Src (Homo sapiens, UniProt P12931). The method, then:
as §1

The target of another experiment is Protein kinase C (PKC). The method, then:
as §1

Platelet-derived growth factor receptor beta, sequence (P09619 whole entry): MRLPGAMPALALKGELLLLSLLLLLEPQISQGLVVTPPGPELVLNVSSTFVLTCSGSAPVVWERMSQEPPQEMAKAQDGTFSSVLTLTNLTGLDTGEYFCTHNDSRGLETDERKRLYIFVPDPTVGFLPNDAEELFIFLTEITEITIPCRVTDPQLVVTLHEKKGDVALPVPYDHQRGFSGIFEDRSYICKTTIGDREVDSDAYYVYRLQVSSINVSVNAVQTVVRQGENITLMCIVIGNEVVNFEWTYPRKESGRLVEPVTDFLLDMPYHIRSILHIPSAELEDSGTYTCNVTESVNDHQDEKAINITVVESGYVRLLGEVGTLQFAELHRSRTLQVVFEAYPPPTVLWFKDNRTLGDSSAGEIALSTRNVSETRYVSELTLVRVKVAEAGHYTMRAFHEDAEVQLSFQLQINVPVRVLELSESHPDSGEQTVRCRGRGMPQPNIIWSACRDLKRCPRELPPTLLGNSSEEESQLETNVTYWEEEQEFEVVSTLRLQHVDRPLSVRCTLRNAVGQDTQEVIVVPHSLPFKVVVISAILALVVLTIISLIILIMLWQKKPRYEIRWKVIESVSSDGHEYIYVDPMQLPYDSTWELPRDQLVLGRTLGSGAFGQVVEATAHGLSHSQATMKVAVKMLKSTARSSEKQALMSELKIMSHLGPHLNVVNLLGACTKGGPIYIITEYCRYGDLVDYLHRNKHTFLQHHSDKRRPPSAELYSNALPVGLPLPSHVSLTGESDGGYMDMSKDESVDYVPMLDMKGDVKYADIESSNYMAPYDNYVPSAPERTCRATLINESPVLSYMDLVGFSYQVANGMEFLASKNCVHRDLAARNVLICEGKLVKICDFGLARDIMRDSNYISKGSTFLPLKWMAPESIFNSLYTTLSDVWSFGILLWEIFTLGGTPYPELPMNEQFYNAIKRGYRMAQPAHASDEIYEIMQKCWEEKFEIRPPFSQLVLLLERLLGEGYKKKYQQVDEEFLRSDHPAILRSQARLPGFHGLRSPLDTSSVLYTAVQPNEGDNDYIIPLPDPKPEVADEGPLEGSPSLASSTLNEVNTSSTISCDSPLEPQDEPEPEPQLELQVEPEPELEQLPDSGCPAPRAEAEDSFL
Fibroblast growth factor receptor 1, sequence (P11362 whole entry): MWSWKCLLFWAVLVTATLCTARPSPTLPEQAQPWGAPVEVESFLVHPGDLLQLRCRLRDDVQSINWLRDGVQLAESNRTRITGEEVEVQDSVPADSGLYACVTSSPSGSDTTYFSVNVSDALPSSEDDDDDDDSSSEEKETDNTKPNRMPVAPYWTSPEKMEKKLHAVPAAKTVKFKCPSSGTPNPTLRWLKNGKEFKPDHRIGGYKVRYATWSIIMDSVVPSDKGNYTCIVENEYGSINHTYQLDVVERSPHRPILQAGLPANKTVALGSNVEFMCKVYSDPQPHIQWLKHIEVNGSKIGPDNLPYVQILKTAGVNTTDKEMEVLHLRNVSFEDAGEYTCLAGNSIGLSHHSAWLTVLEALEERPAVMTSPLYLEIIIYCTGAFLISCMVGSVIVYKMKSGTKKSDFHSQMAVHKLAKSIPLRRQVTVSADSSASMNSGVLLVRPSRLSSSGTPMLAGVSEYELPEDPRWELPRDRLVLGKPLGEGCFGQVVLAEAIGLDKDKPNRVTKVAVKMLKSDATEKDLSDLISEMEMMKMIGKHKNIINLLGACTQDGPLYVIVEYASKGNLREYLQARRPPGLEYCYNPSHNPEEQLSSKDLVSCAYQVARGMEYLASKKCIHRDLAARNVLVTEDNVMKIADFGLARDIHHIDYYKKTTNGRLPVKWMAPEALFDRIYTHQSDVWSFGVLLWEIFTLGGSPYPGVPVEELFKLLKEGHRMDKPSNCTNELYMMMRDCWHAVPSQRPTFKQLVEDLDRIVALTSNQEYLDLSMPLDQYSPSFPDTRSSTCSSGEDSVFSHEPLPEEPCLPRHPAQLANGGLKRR
Proto-oncogene tyrosine-protein kinase Src, sequence (P12931 2-536 limits assumed): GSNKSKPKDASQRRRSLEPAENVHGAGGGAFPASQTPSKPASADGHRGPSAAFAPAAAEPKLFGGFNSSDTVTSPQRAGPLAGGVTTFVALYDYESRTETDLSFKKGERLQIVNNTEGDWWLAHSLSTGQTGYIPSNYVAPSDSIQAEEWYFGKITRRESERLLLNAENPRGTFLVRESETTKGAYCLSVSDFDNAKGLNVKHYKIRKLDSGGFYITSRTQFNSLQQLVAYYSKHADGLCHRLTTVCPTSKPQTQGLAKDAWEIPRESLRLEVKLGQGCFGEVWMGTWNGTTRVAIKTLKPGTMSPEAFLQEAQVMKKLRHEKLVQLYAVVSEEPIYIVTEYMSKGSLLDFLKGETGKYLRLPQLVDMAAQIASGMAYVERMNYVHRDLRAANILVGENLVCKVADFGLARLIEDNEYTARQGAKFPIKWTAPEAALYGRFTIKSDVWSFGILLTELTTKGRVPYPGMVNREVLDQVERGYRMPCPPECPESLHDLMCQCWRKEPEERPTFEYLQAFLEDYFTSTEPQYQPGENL

What is called IC50 is the concentration at which inhibition is half-maximal. A low value points to higher potency. In the case of `CC(C)(C)NC(=O)Nc1nc2nc(N)ncc2cc1-c1c(Cl)cccc1Cl`, the 50% inhibitory concentration (IC50) in experiment [1] was above 50 µM; in experiment [2], 7.1 µM; in experiment [3] it was 1.25 µM; in experiment [4] (pH 7.4, 25 °C), 1.25 µM.

Consider `CN(C)c1cc(-c2cc3cnc(N)nc3nc2NC(=O)NC(C)(C)C)cc(N(C)C)c1`, for which the IC50 in experiment [5] is 16 µM; in experiment [3], above 50 µM; in experiment [4] it was above 50 µM; in experiment [6] it was above 50 µM.

Turning to `CCN(CC)CCOc1ccc(C)c(-c2cc3cnc(N)nc3nc2NC(=O)NC(C)(C)C)c1C` [1-(2-amino-6-{3-[2-(diethylamino)ethoxy]-2,6-dimethylphenyl}pyrido[2,3-d]pyrimidin-7-yl)-3-tert-butylurea], the half-maximal inhibitory concentration (IC50) in experiment [5] was 0.89 µM; in experiment [3], 11.8 µM; in experiment [4] (pH 7.4, 25 °C), 11.8 µM; in experiment [6], 1.65 µM.

`CC(C)(C)NC(=O)Nc1nc2nc(N)ncc2cc1-c1c(Br)cccc1Br` [1-[2-Amino-6-(2,6-dibromo-phenyl)-pyrido-[2,3-d]pyrimidin-7-yl]-3-tert-butyl-urea]: the IC50 is 0.29 µM in experiment [5]; 1.42 µM in experiment [3]; 1.42 µM in experiment [4] (pH 7.4, 25 °C); 0.21 µM in experiment [6].

On to `Cc1c(C)c(C)c(-c2cc3cnc(N)nc3nc2NC(=O)NC(C)(C)C)c(C)c1C` [1-[2-amino-6-(2,3,4,5,6-pentamethylphenyl)pyrido[2,3-d]pyrimidin-7-yl]-3-tert-butylurea], for which the IC50 is 1.62 µM in experiment [5]; above 50 µM in experiment [3]; above 50 µM in experiment [4] (pH 7.4, 25 °C); above 50 µM in experiment [6].

For the compound `Cc1cc(C)c(C)c(-c2cc3cnc(N)nc3nc2NC(=O)NC(C)(C)C)c1C` [1-[2-amino-6-(2,3,5,6-tetramethylphenyl)pyrido[2,3-d]pyrimidin-7-yl]-3-tert-butylurea], the IC50 in experiment [1] was above 40 µM; in experiment [2] it was above 50 µM; in experiment [3], above 50 µM; in experiment [4] (pH 7.4, 25 °C) it was above 50 µM; against Protein kinase C (PKC), above 50 µM.

`CC(C)(C)NC(=O)Nc1nc2nc(N)ncc2cc1-c1c(Cl)ccc(Cl)c1Cl` [1-[2-amino-6-(2,3,6-trichlorophenyl)pyrido[2,3-d]pyrimidin-7-yl]-3-tert-butylurea]: the IC50 in experiment [5] was found to be 0.11 µM; in experiment [3], 2.96 µM; in experiment [4] (pH 7.4, 25 °C), 2.96 µM.

Take `CC(C)(C)NC(=O)Nc1nc2nc(N)ncc2cc1-c1cccc(Cl)c1Cl` [1-[2-amino-6-(2,3-dichlorophenyl)pyrido[2,3-d]pyrimidin-7-yl]-3-tert-butylurea]: the IC50 is 0.16 µM in experiment [5]; 2.26 µM in experiment [3]; 2.26 µM in experiment [4] (pH 7.4, 25 °C); 4.41 µM in experiment [6].

As for `Cc1cccc(-c2cc3cnc(N)nc3nc2NC(=O)NC(C)(C)C)c1C` [1-[2-amino-6-(2,3-dimethylphenyl)pyrido[2,3-d]pyrimidin-7-yl]-3-tert-butylurea], the IC50 in experiment [3] was 6.05 µM; in experiment [4] (pH 7.4, 25 °C), 6.05 µM.

As for `Cc1cc(C)c(-c2cc3cnc(N)nc3nc2NC(=O)NC(C)(C)C)c(C)c1` [1-[2-amino-6-(2,4,6-trimethylphenyl)pyrido[2,3-d]pyrimidin-7-yl]-3-tert-butylurea], the IC50 in experiment [5] is 0.27 µM; in experiment [3], 1.47 µM; in experiment [4] (pH 7.4, 25 °C), 1.47 µM; in experiment [6], 0.36 µM.

On to `CC(C)(C)NC(=O)Nc1nc2nc(N)ncc2cc1-c1c(F)cccc1F` [1-[2-amino-6-(2,6-difluorophenyl)pyrido[2,3-d]pyrimidin-7-yl]-3-tert-butylurea], for which the IC50 stood at 0.11 µM in experiment [5]; 1.67 µM in experiment [3]; 1.67 µM in experiment [4] (pH 7.4, 25 °C); 0.8 µM in experiment [6].

In the case of `CC(C)(C)NC(=O)Nc1nc2nc(N)ncc2cc1-c1c(Cl)cccc1Br` [1-[2-amino-6-(2-bromo-6-chlorophenyl)pyrido[2,3-d]pyrimidin-7-yl]-3-tert-butylurea], the IC50 in experiment [3] is 0.62 µM; in experiment [4] (pH 7.4, 25 °C) it was 0.62 µM; in experiment [6] it was 0.21 µM.

For `CCc1ccccc1-c1cc2cnc(N)nc2nc1NC(=O)NC(C)(C)C` [1-[2-amino-6-(2-ethylphenyl)pyrido[2,3-d]pyrimidin-7-yl]-3-tert-butylurea], the IC50 in experiment [5] came out at 11.2 µM; in experiment [3], 4.48 µM; in experiment [4] (pH 7.4, 25 °C) it was 4.48 µM; in experiment [6] it was 10.4 µM.

Consider `COc1ccccc1-c1cc2cnc(N)nc2nc1NC(=O)NC(C)(C)C` [1-[2-amino-6-(2-methoxyphenyl)pyrido[2,3-d]pyrimidin-7-yl]-3-tert-butylurea], for which the IC50 in experiment [3] was found to be 4.48 µM; in experiment [4] (pH 7.4, 25 °C), 4.48 µM; in experiment [6] it was 10.4 µM.

With `Cc1ccccc1-c1cc2cnc(N)nc2nc1NC(=O)NC(C)(C)C` [1-[2-amino-6-(2-methylphenyl)pyrido[2,3-d]pyrimidin-7-yl]-3-tert-butylurea], the IC50 in experiment [3] was determined as 1.05 µM; in experiment [4] (pH 7.4, 25 °C), 1.05 µM.

Regarding `COc1ccc(-c2cc3cnc(N)nc3nc2NC(=O)NC(C)(C)C)cc1OC` [1-[2-amino-6-(3,4-dimethoxyphenyl)pyrido[2,3-d]pyrimidin-7-yl]-3-tert-butylurea], the half-maximal inhibitory concentration (IC50) in experiment [5] was 20.2 µM; in experiment [3] it was above 50 µM; in experiment [4], above 50 µM; in experiment [6] it was above 50 µM.

Consider `CCOc1cc(OCC)cc(-c2cc3cnc(N)nc3nc2NC(=O)NC(C)(C)C)c1` [1-[2-amino-6-(3,5-diethoxyphenyl)pyrido[2,3-d]pyrimidin-7-yl]-3-tert-butylurea], for which the IC50 in experiment [5] is 1.65 µM; in experiment [3], above 50 µM; in experiment [4] it was above 50 µM; in experiment [6], above 50 µM.

Take `CCc1cc(CC)cc(-c2cc3cnc(N)nc3nc2NC(=O)NC(C)(C)C)c1` [1-[2-amino-6-(3,5-diethylphenyl)pyrido[2,3-d]pyrimidin-7-yl]-3-tert-butylurea]: the IC50 in experiment [5] was 7.76 µM; in experiment [3], above 50 µM; in experiment [4] (pH 7.4, 25 °C), above 50 µM; in experiment [6], above 50 µM.

Consider `CC(C)(C)NC(=O)Nc1nc2nc(N)ncc2cc1-c1cc(F)cc(F)c1` [1-[2-amino-6-(3,5-difluorophenyl)pyrido[2,3-d]pyrimidin-7-yl]-3-tert-butylurea], for which the IC50 in experiment [5] was found to be 1.1 µM; in experiment [3], 8.97 µM; in experiment [4] (pH 7.4, 25 °C), 8.97 µM; in experiment [6], 1.35 µM.

Regarding `Cc1cc(C)cc(-c2cc3cnc(N)nc3nc2NC(=O)NC(C)(C)C)c1` [1-[2-amino-6-(3,5-dimethylphenyl)pyrido[2,3-d]pyrimidin-7-yl]-3-tert-butylurea], the IC50 in experiment [5] is 1.13 µM; in experiment [3], 52.9 µM; in experiment [4] (pH 7.4, 25 °C) it was 52.9 µM; in experiment [6], above 50 µM.

As for `CCOc1cccc(-c2cc3cnc(N)nc3nc2NC(=O)NC(C)(C)C)c1` [1-[2-amino-6-(3-ethoxyphenyl)pyrido[2,3-d]pyrimidin-7-yl]-3-tert-butylurea], the IC50 was 0.67 µM in experiment [5], 23 µM in experiment [3], 23 µM in experiment [4] and above 50 µM in experiment [6].

Take `COc1cccc(-c2cc3cnc(N)nc3nc2NC(=O)NC(C)(C)C)c1` [1-[2-amino-6-(3-methoxyphenyl)pyrido[2,3-d]pyrimidin-7-yl]-3-tert-butylurea]: the IC50 in experiment [5] is 0.36 µM; in experiment [3], 22.9 µM; in experiment [4], 22.9 µM.

As for `COc1ccc(-c2cc3cnc(N)nc3nc2NC(=O)NC(C)(C)C)cc1` [1-[2-amino-6-(4-methoxyphenyl)pyrido[2,3-d]pyrimidin-7-yl]-3-tert-butylurea], the IC50 was 3.97 µM in experiment [5], 2.89 µM in experiment [3], 2.89 µM in experiment [4] and above 50 µM in experiment [6].

Take `Cc1ccc(-c2cc3cnc(N)nc3nc2NC(=O)NC(C)(C)C)cc1` [1-[2-amino-6-(4-methylphenyl)pyrido[2,3-d]pyrimidin-7-yl]-3-tert-butylurea]: the IC50 in experiment [5] was found to be 1.67 µM; in experiment [3], 6.31 µM; in experiment [4] (pH 7.4, 25 °C), 6.31 µM; in experiment [6] it was 17.5 µM.

Consider `CC(C)(C)NC(=O)Nc1nc2nc(N)ncc2cc1-c1cc(C(F)(F)F)cc(C(F)(F)F)c1` [1-{2-amino-6-[3,5-bis(trifluoromethyl)phenyl]pyrido[2,3-d]pyrimidin-7-yl}-3-tert-butylurea], for which the IC50 in experiment [5] was above 50 µM; in experiment [3], above 50 µM; in experiment [4] (pH 7.4, 25 °C), above 50 µM; in experiment [6] it was above 50 µM.

`CC(C)(C)NC(=O)Nc1nc2nc(N)ncc2cc1-c1ccccc1` [1-{2-amino-6-phenylpyrido[2,3-d]pyrimidin-7-yl}-3-tert-butylurea]: the IC50 in experiment [5] came out at 8 µM; in experiment [3] it was 13.2 µM; in experiment [4] (pH 7.4, 25 °C), 13.2 µM; in experiment [6] it was 19.3 µM.

As to `COc1cc(OC)cc(-c2cc3cnc(N)nc3nc2NC(=O)NC(C)(C)C)c1` [6-arylpyrido[2,3-d]pyrimidine deriv. 25], the IC50 in experiment [1] was above 40 µM; in experiment [5] it was 0.06 µM.
